# Source: patent US20240368173A1, “TRICYCLIC GPR65 MODULATORS” (PATHIOS THERAPEUTICS LIMITED, priority 2021, published 2024)
# Read-outs that look alike come from different tables or passages of the source.
# Target: human recombinant GPR65 (Homo sapiens, UniProt Q8IYL9)
# Experiment: Human GPR65 cAMP HTRF antagonist assay
# Type: cell-based
# Procedure, shortened: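 1321N1 astrocytoma cells stably expressing hrGPR65, with IBMX and EDTA, were preincubated with compound 30 min at room temperature, then acid-activated at assay pH 7.2 (control pH 7.9) for 30 min. cAMP read by HTRF (665/620 nm ratio); IC50 from 4-parameter fit normalised to high/low controls.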
# [1] = 1321N1-hrGPR65 cells, cAMP HTRF, assay pH 7.2, read-out: hGPR65 IC50 (Activity of selected compounds according to the invention)
# Chain of human recombinant GPR65 (Q8IYL9 whole entry): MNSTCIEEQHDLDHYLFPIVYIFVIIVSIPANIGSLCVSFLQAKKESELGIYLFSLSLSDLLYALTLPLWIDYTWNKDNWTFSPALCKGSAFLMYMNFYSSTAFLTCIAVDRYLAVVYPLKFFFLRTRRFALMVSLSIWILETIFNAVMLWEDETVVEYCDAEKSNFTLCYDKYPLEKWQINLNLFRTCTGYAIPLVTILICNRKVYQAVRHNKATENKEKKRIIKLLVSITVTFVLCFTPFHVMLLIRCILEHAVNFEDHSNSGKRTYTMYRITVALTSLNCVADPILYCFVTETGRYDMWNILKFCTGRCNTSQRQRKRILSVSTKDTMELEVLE
smiles,measurement,setting,value
"O=C(Nc1cc(Cl)c(Cl)cc1F)N1[C@@H]2CC[C@H]1c1n[nH]c(=O)cc1C2 [Compound 21, (6R,9S)-N-(4,5-Dichloro-2-fluorophenyl)-3-oxo-3,5,6,7,8,9-hexahydro-2H-6,9-epiminocyclohepta[c]pyridazine-10-carboxamide]",IC50,[1],500 to 5000 nM
"CNc1cnc(F)c2c1[C@H]1CC[C@@H](C2)N1C(=O)Nc1cc(Cl)c(Cl)cc1F [Compound 159, (5R,8S)—N-(4,5-dichloro-2-fluorophenyl)-1-fluoro-4-(methylamino)-6,7,8,9-tetrahydro-5H-5,8-epiminocyclohepta[c]pyridine-10-carboxamide]",IC50,,< 500 nM
"O=C(Nc1cc(Cl)c(COc2ccccc2)cc1F)N1[C@H]2CC[C@@H]1c1n[nH]c(=O)cc1C2 [Compound 235, (6S,9R)-N-(5-Chloro-2-fluoro-4-(phenoxymethyl)phenyl)-3-oxo-3,5,6,7,8,9-hexahydro-2H-6,9-epiminocyclohepta[c]pyridazine-10-carboxamide]",IC50,,< 500 nM
"O=C(Nc1cc(Cl)c(-c2cncc(F)c2)cn1)N1[C@H]2CC[C@@H]1c1n[nH]c(=O)cc1C2 [Compound 229, (6S,9R)-N-(4-Chloro-5′-fluoro-[3,3′-bipyridin]-6-yl)-3-oxo-3,5,6,7,8,9-hexahydro-2H-6,9-epiminocyclohepta[c]pyridazine-10-carboxamide]",IC50,,< 500 nM
"Nc1ccc(-c2cc(F)c(NC(=O)N3[C@H]4CC[C@@H]3c3n[nH]c(=O)cc3C4)cc2Cl)cn1 [Compound 118, (6S,9R)-N-(4-(6-Aminopyridin-3-yl)-5-chloro-2-fluorophenyl)-3-oxo-3,5,6,7,8,9-hexahydro-2H-6,9-epiminocyclohepta[c]pyridazine-10-carboxamide]",IC50,[1],500 to 5000 nM
"O=C(Nc1cc(Cl)c(-c2ccc(OC(C(F)F)C(F)F)nc2)cc1F)N1[C@H]2CC[C@@H]1c1n[nH]c(=O)cc1C2 [Compound 331, (6S,9R)-N-(5-Chloro-2-fluoro-4-(6-((1,1,3,3-tetrafluoropropan-2-yl)oxy)pyridin-3-yl)phenyl)-3-oxo-3,5,6,7,8,9-hexahydro-2H-6,9-epiminocyclohepta[c]pyridazine-10-carboxamide]",IC50,,< 500 nM
"N#Cc1cc(F)c(NC(=O)N2C3CCC2c2n[nH]c(=O)cc2C3)cc1Cl (racemic) [Compound 53, (±)-N-(5-Chloro-4-cyano-2-fluorophenyl)-3-oxo-3,5,6,7,8,9-hexahydro-2H-6,9-epiminocyclohepta[c]pyridazine-10-carboxamide]",IC50,[1],500 to 5000 nM
"COc1cc(-c2cc(F)c(NC(=O)N3[C@H]4CC[C@@H]3c3c[nH]c(=O)cc3C4)cc2Cl)ccn1 [Compound 265, (6S,9R)-N-(5-Chloro-2-fluoro-4-(2-methoxypyridin-4-yl)phenyl)-3-oxo-3,5,6,7,8,9-hexahydro-2H-6,9-epiminocyclohepta[c]pyridine-10-carboxamide]",IC50,,< 500 nM
"O=C(Nc1cc(Cl)c(Cl)cc1F)N1[C@H]2CC[C@@H]1c1nccc(F)c1C2 [Compound 91, (6S,9R)-N-(4,5-dichloro-2-fluorophenyl)-4-fluoro-6,7,8,9-tetrahydro-5H-6,9-epiminocyclohepta[b]pyridine-10-carboxamide]",IC50,[1],500 to 5000 nM
"O=C(Nc1cc(Cl)c(-c2ccc(N3CCC3)nc2)cc1F)N1[C@H]2CC[C@@H]1c1n[nH]c(=O)cc1C2 [Compound 341, (6S,9R)-N-(4-(6-(Azetidin-1-yl)pyridin-3-yl)-5-chloro-2-fluorophenyl)-3-oxo-3,5,6,7,8,9-hexahydro-2H-6,9-epiminocyclohepta[c]pyridazine-10-carboxamide]",IC50,,< 500 nM
"O=C(Nc1ccc(C2CC2)c(Cl)c1)N1[C@H]2CC[C@@H]1c1ccnc(F)c1C2 [Compound 59, (5R,8S)-N-(3-Chloro-4-cyclopropylphenyl)-1-fluoro-6,7,8,9-tetrahydro-5H-5,8-epiminocyclohepta[c]pyridine-10-carboxamide]",IC50,,< 500 nM
"Cn1ncc2ccc(-c3cc(F)c(NC(=O)N4[C@H]5CC[C@@H]4c4n[nH]c(=O)cc4C5)cc3Cl)cc21 [Compound 152, (6S,9R)-N-(5-Chloro-2-fluoro-4-(1-methyl-1H-indazol-6-yl)phenyl)-3-oxo-3,5,6,7,8,9-hexahydro-2H-6,9-epiminocyclohepta[c]pyridazine-10-carboxamide]",IC50,,< 500 nM
"O=C(Nc1ccc(OC(F)(F)F)c(Cl)c1)N1[C@@H]2CC[C@H]1c1n[nH]c(=O)cc1C2 [Compound 45, (6R,9S)-N-(3-Chloro-4-(trifluoromethoxy)phenyl)-3-oxo-3,5,6,7,8,9-hexahydro-2H-6,9-epiminocyclohepta[c]pyridazine-10-carboxamide]",IC50,[1],> 5000 nM
"Cc1n[nH]c(C)c1-c1cc(F)c(NC(=O)N2[C@H]3CC[C@@H]2c2n[nH]c(=O)cc2C3)cc1Cl [Compound 149, (6S,9R)-N-(5-Chloro-4-(3,5-dimethyl-1H-pyrazol-4-yl)-2-fluorophenyl)-3-oxo-3,5,6,7,8,9-hexahydro-2H-6,9-epiminocyclohepta[c]pyridazine-10-carboxamide]",IC50,[1],500 to 5000 nM
"Cc1ncc(-c2ccc(NC(=O)N3[C@H]4CC[C@@H]3c3ccnc(F)c3C4)cc2)o1 [Compound 56, (5R,8S)-1-Fluoro-N-(4-(2-methyloxazol-5-yl)phenyl)-6,7,8,9-tetrahydro-5H-5,8-epiminocyclohepta[c]pyridine-10-carboxamide]",IC50,[1],500 to 5000 nM
"O=C(Nc1cc(Cl)c(C(F)(F)F)cc1F)N1[C@@H]2CC[C@H]1c1ccnc(F)c1C2 [Compound 194, (5S,8R)-N-(5-Chloro-2-fluoro-4-(trifluoromethyl)phenyl)-1-fluoro-6,7,8,9-tetrahydro-5H-5,8-epiminocyclohepta[c]pyridine-10-carboxamide]",IC50,,< 500 nM
"O=C(Nc1cc(Cl)c(Cl)cc1F)N1[C@H]2CC[C@@H]1c1c(Cl)cnc(F)c1C2 [Compound 100, (5R,8S)-4-Chloro-N-(4,5-dichloro-2-fluorophenyl)-1-fluoro-6,7,8,9-tetrahydro-5H-5,8-epiminocyclohepta[c]pyridine-10-carboxamide]",IC50,,< 500 nM
"CCOc1ccc(-c2cc(F)c(NC(=O)N3[C@H]4CC[C@@H]3c3ccnc(F)c3C4)cc2Cl)cn1 [Compound 263, (5R,8S)-N-(5-Chloro-4-(6-ethoxypyridin-3-yl)-2-fluorophenyl)-1-fluoro-6,7,8,9-tetrahydro-5H-5,8-epiminocyclohepta[c]pyridine-10-carboxamide]",IC50,,< 500 nM
"CCOc1ccc(-c2cc(F)c(NC(=O)N3[C@H]4CC[C@@H]3c3n[nH]c(=O)cc3C4)cc2Cl)cn1 [Compound 208, (6S,9R)-N-(5-Chloro-4-(6-ethoxypyridin-3-yl)-2-fluorophenyl)-3-oxo-3,5,6,7,8,9-hexahydro-2H-6,9-epiminocyclohepta[c]pyridazine-10-carboxamide]",IC50,,< 500 nM
"O=C(Nc1cc(Cl)c(-c2cc(F)cnc2F)cc1F)N1[C@H]2CC[C@@H]1c1c[nH]c(=O)cc1C2 [Compound 252, (6S,9R)-N-(5-Chloro-4-(2,5-difluoropyridin-3-yl)-2-fluorophenyl)-3-oxo-3,5,6,7,8,9-hexahydro-2H-6,9-epiminocyclohepta[c]pyridine-10-carboxamide]",IC50,,< 500 nM
"COc1ncc(-c2cc(F)c(NC(=O)N3[C@H]4CC[C@@H]3c3n[nH]c(=O)cc3C4)cc2Cl)cc1F [Compound 207, (6S,9R)-N-(5-Chloro-2-fluoro-4-(5-fluoro-6-methoxypyridin-3-yl)phenyl)-3-oxo-3,5,6,7,8,9-hexahydro-2H-6,9-epiminocyclohepta[c]pyridazine-10-carboxamide]",IC50,,< 500 nM
"O=C(Nc1cc(Cl)c(OC2CCC2)cc1F)N1[C@H]2CC[C@@H]1c1c[nH]c(=O)cc1C2 [Compound 81, (6S,9R)-N-(5-Chloro-4-cyclobutoxy-2-fluorophenyl)-3-oxo-3,5,6,7,8,9-hexahydro-2H-6,9-epiminocyclohepta[c]pyridine-10-carboxamide]",IC50,,< 500 nM
"O=C(Nc1cc(-c2ccccc2)c(C(F)(F)F)cc1F)N1[C@H]2CC[C@@H]1c1n[nH]c(=O)cc1C2 [Compound 258, (6S,9R)-N-(4-Fluoro-6-(trifluoromethyl)-[1,1′-biphenyl]-3-yl)-3-oxo-3,5,6,7,8,9-hexahydro-2H-6,9-epiminocyclohepta[c]pyridazine-10-carboxamide]",IC50,,< 500 nM
"O=C(Nc1cc(-c2cncc(F)c2)c(C(F)(F)F)cc1F)N1[C@H]2CC[C@@H]1c1c[nH]c(=O)cc1C2 [Compound 255, (6S,9R)-N-(2-Fluoro-5-(5-fluoropyridin-3-yl)-4-(trifluoromethyl)phenyl)-3-oxo-3,5,6,7,8,9-hexahydro-2H-6,9-epiminocyclohepta[c]pyridine-10-carboxamide]",IC50,,< 500 nM
"O=C1NCc2cc(-c3cc(F)c(NC(=O)N4[C@H]5CC[C@@H]4c4n[nH]c(=O)cc4C5)cc3Cl)ccc21 [Compound 142, (6S,9R)-N-(5-Chloro-2-fluoro-4-(1-oxoisoindolin-5-yl)phenyl)-3-oxo-3,5,6,7,8,9-hexahydro-2H-6,9-epiminocyclohepta[c]pyridazine-10-carboxamide]",IC50,[1],> 5000 nM
"O=C(Nc1cc(Cl)c(F)cc1Oc1ccc2nonc2c1)N1[C@H]2CC[C@@H]1c1n[nH]c(=O)cc1C2 [Compound 224, (6S,9R)-N-(2-(Benzo[c][1,2,5]oxadiazol-5-yloxy)-5-chloro-4-fluorophenyl)-3-oxo-3,5,6,7,8,9-hexahydro-2H-6,9-epiminocyclohepta[c]pyridazine-10-carboxamide]",IC50,,500 to 5000 nM
"O=C(Nc1cc(Cl)c(Br)cc1F)N1C2CCC1c1n[nH]c(=O)cc1C2 (racemic) [Compound 8, (±)-N-(4-Bromo-5-chloro-2-fluorophenyl)-3-oxo-3,5,6,7,8,9-hexahydro-2H-6,9-epiminocyclohepta[c]pyridazine-10-carboxamide]",IC50,,< 500 nM
"O=C(Nc1cc(Cl)c(Br)cc1F)N1[C@@H]2CC[C@H]1c1n[nH]c(=O)cc1C2 [Compound 33, (6R,9S)-N-(4-Bromo-5-chloro-2-fluorophenyl)-3-oxo-3,5,6,7,8,9-hexahydro-2H-6,9-epiminocyclohepta[c]pyridazine-10-carboxamide]",IC50,[1],> 5000 nM
